The results in this text go back to ChEMBL document CHEMBL1142535, “Rational design and synthesis of 4-((1R,2R)-2-hydroxycyclohexyl)-2(trifluoromethyl)benzonitrile (PF-998425), a novel, nonsteroidal androgen receptor antagonist devoid of phototoxicity for dermatological indications” (J Med Chem, 2008).

Molecules are shown by their SMILES. The source made the active and inactive calls. No cut-off for these calls is given here. Some results are limits rather than exact numbers.

The test system of data set [1] is Syrian golden hamster. The experiment in a line: Reduction of sebum ester production in golden syrian hamster ear topically dosed at 3% twice daily 5 days per week for two weeks. The format is functional, Mesocricetus auratus. Set-up: scale not given: the % may be the effect or the level left.
In the next data set the target is T1, Progesterone receptor (Homo sapiens, UniProt P06401).
T1 sequence (P06401 whole entry): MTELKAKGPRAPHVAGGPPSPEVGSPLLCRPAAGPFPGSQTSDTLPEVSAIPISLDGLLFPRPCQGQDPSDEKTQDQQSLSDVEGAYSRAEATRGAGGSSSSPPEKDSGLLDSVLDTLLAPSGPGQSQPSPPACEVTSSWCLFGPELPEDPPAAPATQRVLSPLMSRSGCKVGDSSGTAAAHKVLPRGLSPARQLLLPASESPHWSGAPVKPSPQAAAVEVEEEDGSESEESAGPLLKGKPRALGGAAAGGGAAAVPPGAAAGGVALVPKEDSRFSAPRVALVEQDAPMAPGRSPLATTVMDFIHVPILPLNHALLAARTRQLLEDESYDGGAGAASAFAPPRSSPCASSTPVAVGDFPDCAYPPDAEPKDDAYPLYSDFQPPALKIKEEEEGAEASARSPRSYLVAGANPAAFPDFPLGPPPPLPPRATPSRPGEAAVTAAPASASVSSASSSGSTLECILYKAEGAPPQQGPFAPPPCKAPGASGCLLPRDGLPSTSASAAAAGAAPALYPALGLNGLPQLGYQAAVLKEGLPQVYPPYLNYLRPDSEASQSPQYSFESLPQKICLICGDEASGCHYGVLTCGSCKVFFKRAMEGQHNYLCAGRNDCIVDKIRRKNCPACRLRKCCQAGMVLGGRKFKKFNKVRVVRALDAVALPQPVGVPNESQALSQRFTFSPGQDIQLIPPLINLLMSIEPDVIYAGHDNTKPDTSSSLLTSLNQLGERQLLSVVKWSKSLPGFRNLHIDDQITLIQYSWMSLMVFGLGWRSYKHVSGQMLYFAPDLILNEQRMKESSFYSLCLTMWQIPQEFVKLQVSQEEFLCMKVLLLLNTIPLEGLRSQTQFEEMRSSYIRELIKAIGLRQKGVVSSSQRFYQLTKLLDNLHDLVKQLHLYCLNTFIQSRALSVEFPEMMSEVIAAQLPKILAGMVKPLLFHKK
The experiment in a line: Inhibition of progesterone receptor.

The target in data set [2] is T2, Androgen receptor (Homo sapiens, UniProt P10275).
T2 sequence (P10275 whole entry): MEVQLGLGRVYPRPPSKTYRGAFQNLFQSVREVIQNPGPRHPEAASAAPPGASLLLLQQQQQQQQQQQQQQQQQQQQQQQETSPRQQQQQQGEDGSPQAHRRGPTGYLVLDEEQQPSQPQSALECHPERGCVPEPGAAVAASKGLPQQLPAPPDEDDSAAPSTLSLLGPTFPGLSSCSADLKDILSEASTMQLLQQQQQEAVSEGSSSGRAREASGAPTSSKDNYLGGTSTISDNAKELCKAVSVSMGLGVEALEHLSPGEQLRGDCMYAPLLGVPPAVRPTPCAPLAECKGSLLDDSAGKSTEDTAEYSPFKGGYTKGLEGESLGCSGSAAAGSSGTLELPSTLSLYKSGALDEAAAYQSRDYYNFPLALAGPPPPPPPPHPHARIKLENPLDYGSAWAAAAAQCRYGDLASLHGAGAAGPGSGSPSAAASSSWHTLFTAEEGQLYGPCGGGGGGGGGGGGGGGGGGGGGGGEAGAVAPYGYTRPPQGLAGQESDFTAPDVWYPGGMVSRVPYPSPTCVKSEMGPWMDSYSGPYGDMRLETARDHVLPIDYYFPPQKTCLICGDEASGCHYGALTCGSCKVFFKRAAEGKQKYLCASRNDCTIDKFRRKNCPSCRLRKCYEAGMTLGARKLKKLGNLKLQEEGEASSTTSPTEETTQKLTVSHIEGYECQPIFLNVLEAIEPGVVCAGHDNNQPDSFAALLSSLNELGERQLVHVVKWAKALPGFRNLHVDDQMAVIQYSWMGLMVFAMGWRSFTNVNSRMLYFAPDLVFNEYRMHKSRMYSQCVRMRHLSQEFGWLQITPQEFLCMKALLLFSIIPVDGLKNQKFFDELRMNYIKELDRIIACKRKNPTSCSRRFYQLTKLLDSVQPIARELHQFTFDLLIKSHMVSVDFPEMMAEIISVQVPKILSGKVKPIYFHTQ
The experiment in a line: biochemical.
Description: Displacement of [3H]dihydrotestosterone from human androgen receptor expressed in Sf9 cells

The target of data set [3] is T2, Androgen receptor.
Description: Antagonist activity against human androgen receptor expressed in human MDA-MB-453 cells assessed as inhibition of dihydrotestosterone-induced effect by luciferase receptor gene assay
Data set [4] in a line: Mean terminal half life in Beagle dog at 0.8 mg/kg, iv after 24 hrs. The format is ADME, organism-based, Canis lupus familiaris. Set-up: dose 0.8 mg/kg, route intravenous. Particulars: in vivo, read-out: beta t1/2 (converted).
A short description of data set [5]: Metabolic stability assessed as intrinsic clearance per mg of protein in rat liver microsomes at 5 uM. The format is ADME, Microsome. (In general: Liver microsomes are vesicles of endoplasmic reticulum, rich in cytochrome P450 enzymes.)
The nature of data set [6]: Metabolic stability assessed as half life in rat liver microsomes at 5 uM. The format is ADME, Microsome.
A short description of data set [7]: Plasma clearance in Beagle dog at 0.8 mg/kg, iv after 24 hrs. Type of data set: ADME, organism-based, Canis lupus familiaris. Set-up: dose 0.8 mg/kg, route intravenous.
Data set [8] can be described thus: Apparent volume of distribution in Beagle dog at 0.8 mg/kg, iv after 24 hrs. Type of data set: ADME, organism-based, Canis lupus familiaris. Set-up: dose 0.8 mg/kg, route intravenous. Particulars: in vivo, read-out: Vdss.
The subject of data set [9] is Syrian golden hamster. The experiment in a line: Reduction of sebum ester production in golden syrian hamster ear topically dosed twice daily 5 days per week for two weeks. The format is functional, Mesocricetus auratus.
The next data set deals with NIH3T3. The experiment in a line: Phototoxicity in mouse 3T3 cells by neutral red uptake phototoxicity. Type of data set: cell-based.
For a further data set, the system named is Mus musculus. The experiment in a line: Activation of hair growth in C3H/HeN mouse hair growth model topically dosed twice daily 5 days per week for 4 weeks. Type of data set: functional, organism-based.

Usually IC50 stands for the concentration that gives 50% inhibition. As usually defined, the microsomal CLint is the rate of metabolic loss divided by the concentration. By clearance is commonly meant the volume of plasma or blood freed of the substance per unit of time.

In the data set on Syrian golden hamster [1], `CC1(C)C(=O)N(c2ccc(C#N)c(C(F)(F)F)c2)C(=O)N1CCCCO` [RU-58841] had an Activity of 92%. Also, half-maximal inhibition against Progesterone receptor (IC50) was put at 1000 nM.
As to `N#Cc1ccc([C@@H]2CCCC[C@@H]2O)cc1C(F)(F)F`, the 50% inhibitory concentration (IC50) against Androgen receptor [2] stood at 1600 nM.
The compound `C[C@H](c1ccccc1)N(C)c1cc(C(F)(F)F)c(C#N)cn1` returned an IC50 against Progesterone receptor of 1660 nM.
Take `COc1cc(-c2ccccc2O)ccc1C#N`: the IC50 against Androgen receptor [3] is 20.1 nM; against Androgen receptor [2], 37 nM; against Progesterone receptor, 3250 nM. The Activity in the data set with Syrian golden hamster [1] stood at 87%.
As to `N#Cc1ccc(C2CCCCC2O)cc1C(F)(F)F` (racemic), the IC50 is 90 nM on Androgen receptor [3], 26 nM against Androgen receptor [2] and > 10000 nM at Progesterone receptor.
`N#Cc1ccc(-c2ccccc2O)cc1C(F)(F)F` gave an Activity in the data set with Syrian golden hamster [1] of 86%.
Consider `N#Cc1ccc([C@H]2CCCC[C@@H]2O)cc1C(F)(F)F`, for which the half-maximal inhibitory concentration (IC50) at Androgen receptor [2] was > 3000 nM.
For the compound `N#Cc1ccc(O[C@@H]2CCCC[C@H]2C#N)cc1C(F)(F)F`, the IC50 against Progesterone receptor is > 10000 nM.
For `N#Cc1ccc([C@H]2CCCC[C@H]2O)cc1C(F)(F)F`, in data set [4], the half-life is 2.6 h. Also, the microsomal CLint at 5 µM in data set [5] came out at 350 µL/min/mg. Moreover, the half-life at 5 µM in data set [6] was found to be 4 min. Further, the values for the IC50 against Androgen receptor [3], against Androgen receptor [2] and against Progesterone receptor were 43 nM, 37 nM and > 10000 nM, respectively. Further, the clearance in data set [7] turned out to be 40 mL/min/kg. Also, the Activity in the data set with Syrian golden hamster [1] is 85%; in the data set with NIH3T3 it was “Non-toxic”. The Vd in data set [8] was determined as 6.5 L/kg. The ED50 in the data set with Syrian golden hamster [9] came to 0.4%. For the same compound, the outcome with Mus musculus was Active.
